Assay results published in patent US20250114345A1, “COMPOUNDS AND COMPOSITIONS AS CBP/P300 DEGRADERS AND USES THEREOF” (Oncopia Therapeutics, Inc. d/b/a/ SK Life Science Labs, priority 2023, published 2025).

What was measured:
p300 = biological target: T1, p300 (Homo sapiens, UniProt Q09472); test: P300 degradation, HiBit technology in A549 P300 HiBit cells (2 h); type: cell-based; details: 2 hrs post treatment; for Dmax: A549, A549 P300 HiBit cells; for DC50: A549 P300 HiBit cells
T1 construct: host or cells: A549 P300 HiBit cells
Summary of the method: (§1)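 Luminescence after lytic HiBiT detection (10 min, room temperature) gave degradation potency and Dmax. Before that, knock-in A549 cells grown overnight in F-12K/10% HI-FBS were exposed to serially diluted compound at 37 °C, 5% CO2 for the assay time stated.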

CBP = biological target: T2, CBP (Homo sapiens, UniProt Q92793); test: CBP degradation, HiBit technology in A549 CBP HiBit cells (24 h); type: cell-based; details: 24 hrs post treatment
T2 construct: host or cells: A549 CBP HiBit cells
Summary of the method: as §1

T2 sequence (Q92793 whole entry): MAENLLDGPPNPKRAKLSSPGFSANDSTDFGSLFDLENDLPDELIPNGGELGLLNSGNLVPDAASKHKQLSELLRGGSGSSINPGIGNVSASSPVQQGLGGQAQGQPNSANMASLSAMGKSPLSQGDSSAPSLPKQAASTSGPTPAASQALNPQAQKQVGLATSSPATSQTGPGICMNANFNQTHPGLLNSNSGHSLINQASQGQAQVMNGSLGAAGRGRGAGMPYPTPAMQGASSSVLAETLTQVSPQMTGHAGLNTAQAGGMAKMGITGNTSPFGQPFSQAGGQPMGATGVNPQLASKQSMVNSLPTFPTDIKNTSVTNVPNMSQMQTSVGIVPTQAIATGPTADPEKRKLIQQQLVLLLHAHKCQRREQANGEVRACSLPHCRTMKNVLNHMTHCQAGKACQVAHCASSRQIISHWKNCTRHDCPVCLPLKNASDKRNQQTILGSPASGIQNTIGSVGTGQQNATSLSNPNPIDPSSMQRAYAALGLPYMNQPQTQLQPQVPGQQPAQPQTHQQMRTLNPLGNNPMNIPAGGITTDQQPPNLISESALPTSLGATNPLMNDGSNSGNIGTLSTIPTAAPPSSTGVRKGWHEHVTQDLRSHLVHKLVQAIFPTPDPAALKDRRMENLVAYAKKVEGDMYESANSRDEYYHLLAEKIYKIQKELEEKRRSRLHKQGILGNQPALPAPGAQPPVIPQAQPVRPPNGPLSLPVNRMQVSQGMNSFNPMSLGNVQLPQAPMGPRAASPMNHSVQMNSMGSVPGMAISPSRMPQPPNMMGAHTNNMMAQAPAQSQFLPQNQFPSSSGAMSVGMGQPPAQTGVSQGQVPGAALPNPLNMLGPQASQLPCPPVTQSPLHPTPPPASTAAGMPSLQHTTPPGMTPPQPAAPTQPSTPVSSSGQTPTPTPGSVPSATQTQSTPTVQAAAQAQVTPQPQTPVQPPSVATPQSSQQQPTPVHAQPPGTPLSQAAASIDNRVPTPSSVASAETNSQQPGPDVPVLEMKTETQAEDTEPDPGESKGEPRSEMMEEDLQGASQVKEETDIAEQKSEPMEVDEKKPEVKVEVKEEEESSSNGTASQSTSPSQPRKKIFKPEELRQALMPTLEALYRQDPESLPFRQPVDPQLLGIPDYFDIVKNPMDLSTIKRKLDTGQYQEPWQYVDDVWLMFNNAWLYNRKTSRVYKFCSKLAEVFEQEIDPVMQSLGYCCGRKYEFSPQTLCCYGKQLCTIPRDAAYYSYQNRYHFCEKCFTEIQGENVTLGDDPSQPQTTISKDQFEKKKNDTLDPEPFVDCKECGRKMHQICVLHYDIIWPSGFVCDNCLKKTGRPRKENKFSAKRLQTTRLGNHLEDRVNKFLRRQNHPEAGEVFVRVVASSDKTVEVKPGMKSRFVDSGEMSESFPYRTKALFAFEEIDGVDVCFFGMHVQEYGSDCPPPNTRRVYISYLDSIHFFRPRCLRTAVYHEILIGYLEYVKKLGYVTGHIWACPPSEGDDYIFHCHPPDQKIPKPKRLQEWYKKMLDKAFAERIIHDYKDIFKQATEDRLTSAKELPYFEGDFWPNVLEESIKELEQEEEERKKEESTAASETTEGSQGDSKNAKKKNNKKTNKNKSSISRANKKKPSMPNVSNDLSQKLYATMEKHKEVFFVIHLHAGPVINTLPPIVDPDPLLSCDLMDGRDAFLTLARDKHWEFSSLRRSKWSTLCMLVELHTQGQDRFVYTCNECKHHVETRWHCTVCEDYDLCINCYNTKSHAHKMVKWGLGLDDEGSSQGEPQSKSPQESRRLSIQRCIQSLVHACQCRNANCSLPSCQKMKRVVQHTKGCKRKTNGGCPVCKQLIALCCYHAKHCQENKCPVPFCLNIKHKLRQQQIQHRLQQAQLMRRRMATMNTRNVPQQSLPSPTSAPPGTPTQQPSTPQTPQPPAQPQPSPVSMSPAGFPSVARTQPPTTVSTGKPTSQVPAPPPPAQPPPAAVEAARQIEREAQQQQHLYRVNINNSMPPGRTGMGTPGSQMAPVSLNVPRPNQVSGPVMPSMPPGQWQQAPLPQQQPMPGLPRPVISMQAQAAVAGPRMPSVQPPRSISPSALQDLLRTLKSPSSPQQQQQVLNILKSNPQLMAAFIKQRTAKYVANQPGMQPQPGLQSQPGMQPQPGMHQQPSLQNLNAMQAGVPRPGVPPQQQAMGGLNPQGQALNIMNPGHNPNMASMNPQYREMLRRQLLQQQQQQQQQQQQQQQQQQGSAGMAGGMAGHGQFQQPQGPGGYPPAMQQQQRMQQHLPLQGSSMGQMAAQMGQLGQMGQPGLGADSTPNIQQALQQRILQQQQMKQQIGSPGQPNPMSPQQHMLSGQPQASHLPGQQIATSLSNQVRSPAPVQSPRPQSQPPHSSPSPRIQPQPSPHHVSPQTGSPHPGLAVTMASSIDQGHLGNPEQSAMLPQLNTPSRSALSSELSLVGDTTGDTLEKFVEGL
T1 sequence (Q09472 whole entry): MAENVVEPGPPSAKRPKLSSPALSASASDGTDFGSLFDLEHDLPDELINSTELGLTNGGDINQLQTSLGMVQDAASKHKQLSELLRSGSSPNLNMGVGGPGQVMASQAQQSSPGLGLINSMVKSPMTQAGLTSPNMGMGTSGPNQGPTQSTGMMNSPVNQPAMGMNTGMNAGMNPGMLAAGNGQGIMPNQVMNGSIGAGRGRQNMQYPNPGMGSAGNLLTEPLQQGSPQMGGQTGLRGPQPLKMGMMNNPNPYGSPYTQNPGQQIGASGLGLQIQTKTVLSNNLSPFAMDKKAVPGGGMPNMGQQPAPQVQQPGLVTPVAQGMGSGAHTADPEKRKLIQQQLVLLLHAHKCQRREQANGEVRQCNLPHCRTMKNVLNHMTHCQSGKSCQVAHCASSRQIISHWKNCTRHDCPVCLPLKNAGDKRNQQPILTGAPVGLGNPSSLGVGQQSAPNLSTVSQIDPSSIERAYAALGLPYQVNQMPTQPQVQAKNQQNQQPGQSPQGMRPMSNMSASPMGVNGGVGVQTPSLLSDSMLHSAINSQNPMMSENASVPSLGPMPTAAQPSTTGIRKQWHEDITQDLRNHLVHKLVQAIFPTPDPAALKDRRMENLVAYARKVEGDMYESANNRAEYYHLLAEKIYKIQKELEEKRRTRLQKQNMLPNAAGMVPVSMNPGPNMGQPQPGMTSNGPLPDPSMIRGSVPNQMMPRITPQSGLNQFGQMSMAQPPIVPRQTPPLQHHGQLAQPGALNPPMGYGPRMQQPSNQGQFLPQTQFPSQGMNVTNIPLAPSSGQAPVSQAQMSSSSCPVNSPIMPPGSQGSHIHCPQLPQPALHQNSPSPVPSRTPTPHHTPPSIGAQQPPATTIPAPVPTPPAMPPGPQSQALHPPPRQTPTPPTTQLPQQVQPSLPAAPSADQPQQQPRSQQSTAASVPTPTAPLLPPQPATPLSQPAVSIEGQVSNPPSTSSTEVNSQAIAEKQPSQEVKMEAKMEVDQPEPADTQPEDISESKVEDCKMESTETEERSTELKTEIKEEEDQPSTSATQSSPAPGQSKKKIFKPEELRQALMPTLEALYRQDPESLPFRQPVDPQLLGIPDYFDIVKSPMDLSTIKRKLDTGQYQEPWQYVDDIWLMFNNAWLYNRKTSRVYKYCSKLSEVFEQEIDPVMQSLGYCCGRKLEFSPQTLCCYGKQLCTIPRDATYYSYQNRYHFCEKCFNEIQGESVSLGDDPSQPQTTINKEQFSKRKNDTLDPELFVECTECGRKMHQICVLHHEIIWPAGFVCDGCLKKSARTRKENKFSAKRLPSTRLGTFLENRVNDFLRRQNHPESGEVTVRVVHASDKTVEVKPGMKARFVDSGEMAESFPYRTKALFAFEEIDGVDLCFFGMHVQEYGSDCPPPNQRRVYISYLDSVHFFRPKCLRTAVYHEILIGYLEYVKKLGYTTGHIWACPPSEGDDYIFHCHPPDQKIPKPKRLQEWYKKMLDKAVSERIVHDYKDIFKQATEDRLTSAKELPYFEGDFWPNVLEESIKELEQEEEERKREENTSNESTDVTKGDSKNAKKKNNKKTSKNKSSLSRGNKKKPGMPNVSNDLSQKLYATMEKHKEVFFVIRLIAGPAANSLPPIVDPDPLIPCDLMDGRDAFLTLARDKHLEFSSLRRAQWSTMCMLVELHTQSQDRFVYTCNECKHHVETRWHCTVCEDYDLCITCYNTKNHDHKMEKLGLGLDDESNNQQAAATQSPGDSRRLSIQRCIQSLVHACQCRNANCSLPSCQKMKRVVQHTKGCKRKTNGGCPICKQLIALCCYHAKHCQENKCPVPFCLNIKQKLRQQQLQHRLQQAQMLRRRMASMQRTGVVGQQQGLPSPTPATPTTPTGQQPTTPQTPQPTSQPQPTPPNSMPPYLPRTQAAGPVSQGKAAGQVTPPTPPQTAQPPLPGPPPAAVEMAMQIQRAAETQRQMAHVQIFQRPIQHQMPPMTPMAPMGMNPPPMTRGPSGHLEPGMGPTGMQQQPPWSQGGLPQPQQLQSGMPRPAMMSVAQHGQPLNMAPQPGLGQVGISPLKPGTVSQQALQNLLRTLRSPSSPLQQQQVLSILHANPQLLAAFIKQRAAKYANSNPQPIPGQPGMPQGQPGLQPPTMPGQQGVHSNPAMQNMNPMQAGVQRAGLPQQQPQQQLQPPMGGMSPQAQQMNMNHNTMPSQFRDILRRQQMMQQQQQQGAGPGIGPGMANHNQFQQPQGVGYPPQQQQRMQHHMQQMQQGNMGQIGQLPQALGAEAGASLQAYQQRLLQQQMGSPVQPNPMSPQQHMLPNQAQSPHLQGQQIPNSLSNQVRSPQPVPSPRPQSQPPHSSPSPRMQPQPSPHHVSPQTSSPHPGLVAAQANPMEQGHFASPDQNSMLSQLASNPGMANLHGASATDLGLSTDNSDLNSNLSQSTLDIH

Dmax (p300) | DC50 (p300) | DC50 (CBP) | Dmax (CBP) | Structure (SMILES)
> 80% | 1 to 9.9 nM | > 1000 nM | < 20% | Cc1cc2c(N3CCCc4nc(-c5ccc(C(=O)NCC#Cc6cc7c(C8CCC(=O)NC8=O)cccc7s6)nc5)ncc43)cc(C3CCOCC3)cc2n(C)c1=O (centres unmarked) [Example B79, 5-(5-(1,3-dimethyl-2-oxo-7-(tetrahydro-2H-pyran-4-yl)-1,2-dihydroquinolin-5-yl)-5,6,7,8-tetrahydropyrido[3,2-d]pyrimidin-2-yl)-N-(3-(4-(2,6-dioxopiperidin-3-yl)benzo[b]thiophen-2-yl)prop-2-yn-1-yl)picolinamide]
> 80% | 1 to 9.9 nM | > 1000 nM | < 20% | Cc1cc2c(N3CCCc4nc(-c5ccc(C(=O)NCC#Cc6cc7c(C8CCC(=O)NC8=O)cccc7o6)nc5)ncc43)cc(C3(F)CCOCC3)cc2n(C)c1=O (centres unmarked) [Example B82, N-(3-(4-(2,6-dioxopiperidin-3-yl)benzofuran-2-yl)prop-2-yn-1-yl)-5-(5-(7-(4-fluorotetrahydro-2H-pyran-4-yl)-1,3-dimethyl-2-oxo-1,2-dihydroquinolin-5-yl)-5,6,7,8-tetrahydropyrido [3,2-d]pyrimidin-2-yl)picolinamide]
> 80% | 1 to 9.9 nM | 100 to 999 nM | 40 to 59% | Cc1cc(-c2cc3c(cn2)N(c2cccc4c2cc(C)c(=O)n4C)CCO3)cnc1C(=O)NCC#Cc1ccc2occ(C3CCC(=O)NC3=O)c2c1 (centres unmarked) [Example B83, 5-(4-(1,3-dimethyl-2-oxo-1,2-dihydroquinolin-5-yl)-3,4-dihydro-2H-pyrido[4,3-b][1,4]oxazin-7-yl)-N-(3-(3-(2,6-dioxopiperidin-3-yl)benzofuran-5-yl)prop-2-yn-1-yl)-3-methylpicolinamide]
> 80% | < 1 nM | > 1000 nM | < 20% | Cc1cc2c(N3CCCc4nc(-c5ccc(C(=O)NCC#Cc6cc7c(C8CCC(=O)NC8=O)c(F)ccc7o6)nc5)ncc43)cc(C3CCOCC3)cc2n(C)c1=O (centres unmarked) [Example B90, 5-(5-(1,3-dimethyl-2-oxo-7-(tetrahydro-2H-pyran-4-yl)-1,2-dihydroquinolin-5-yl)-5,6,7,8-tetrahydropyrido[3,2-d]pyrimidin-2-yl)-N-(3-(4-(2,6-dioxopiperidin-3-yl)-5-fluorobenzo-furan-2-yl)prop-2-yn-1-yl)picolinamide]
> 80% | 1 to 9.9 nM | 100 to 999 nM | < 20% | Cc1cc2c(N3CCOc4nc(-c5ccc(C(=O)NCC#Cc6cc7c(C8CCC(=O)NC8=O)cccc7o6)nc5)ncc43)cc(C3CCOCC3)cc2n(C)c1=O (centres unmarked) [Example B96, 5-(5-(1,3-dimethyl-2-oxo-7-(tetrahydro-2H-pyran-4-yl)-1,2-dihydroquinolin-5-yl)-6,7-dihydro-5H-pyrimido[4,5-b][1,4]oxazin-2-yl)-N-(3-(4-(2,6-dioxopiperidin-3-yl)benzofuran-2-yl)prop-2-yn-1-yl)picolinamide]

More lines, now with the values behind:

Structure (SMILES) | Dmax (p300) | DC50 (p300) | DC50 (CBP) | Dmax (CBP)
Cc1cc2c(N3CCCc4nc(-c5ccc(C(=O)NCC#Cc6ccc7occ(C8CCC(=O)NC8=O)c7c6)nc5)ncc43)cc(C3CCOCC3)nc2n(C)c1=O (centres unmarked) [Example B76, 5-(5-(6,8-dimethyl-7-oxo-2-(tetrahydro-2H-pyran-4-yl)-7,8-dihydro-1,8-naphthyridin-4-yl)-5,6,7,8-tetrahydropyrido[3,2-d]pyrimidin-2-yl)-N-(3-(3-(2,6-dioxopiperidin-3-yl)benzofuran-5-yl)prop-2-yn-1-yl)picolinamide] | > 80% | 1 to 9.9 nM | 100 to 999 nM | < 20%
Cc1cc2c(N3CCOc4cc(-c5ccc(C(=O)NCC#Cc6ccc7occ(C8CCC(=O)NC8=O)c7c6)nc5)ncc43)cccc2n(C)c1=O (centres unmarked) [Example B77, 5-(4-(1,3-dimethyl-2-oxo-1,2-dihydroquinolin-5-yl)-3,4-dihydro-2H-pyrido[4,3-b][1,4]oxazin-7-yl)-N-(3-(3-(2,6-dioxopiperidin-3-yl)benzofuran-5-yl)prop-2-yn-1-yl)picolinamide] | > 80% | 1 to 9.9 nM | > 1000 nM | < 20%
Cc1cc2c(N3CCCc4nc(-c5ccc(C(=O)NCC#Cc6cc7c(C8CCC(=O)NC8=O)nccc7s6)nc5)ncc43)cc(C3CCOCC3)cc2n(C)c1=O (centres unmarked) [Example B81, 5-(5-(1,3-dimethyl-2-oxo-7-(tetrahydro-2H-pyran-4-yl)-1,2-dihydroquinolin-5-yl)-5,6,7,8-tetrahydropyrido[3,2-d]pyrimidin-2-yl)-N-(3-(4-(2,6-dioxopiperidin-3-yl)thieno[3,2-c]pyridin-2-yl)prop-2-yn-1-yl)picolinamide] | > 80% | 1 to 9.9 nM | 10 to 99 nM | 40 to 59%
Cc1cc2c(N3CCCc4cc(-c5ccc(C(=O)NCC#Cc6cc7c(C8CCC(=O)NC8=O)nccc7o6)nc5)nnc43)cc(C3CCOCC3)cc2n(C)c1=O (centres unmarked) [Example B84, 5-(8-(1,3-dimethyl-2-oxo-7-(tetrahydro-2H-pyran-4-yl)-1,2-dihydroquinolin-5-yl)-5,6,7,8-tetrahydropyrido[2,3-c]pyridazin-3-yl)-N-(3-(4-(2,6-dioxopiperidin-3-yl)furo [3,2-c]pyridin-2-yl)prop-2-yn-1-yl) picolinamide] | > 80% | < 1 nM | 100 to 999 nM | < 20%
Cc1cc2c(N3CCCc4nc(-c5cnc(C(=O)NCC#Cc6cc7c(C8CCC(=O)NC8=O)cccc7o6)cn5)ncc43)cc(C3CCOCC3)cc2n(C)c1=O (centres unmarked) [Example B87, 5-(5-(1,3-dimethyl-2-oxo-7-(tetrahydro-2H-pyran-4-yl)-1,2-dihydroquinolin-5-yl)-5,6,7,8-tetrahydropyrido[3,2-d]pyrimidin-2-yl)-N-(3-(4-(2,6-dioxopiperidin-3-yl)benzofuran-2-yl)prop-2-yn-1-yl)pyrazine-2-carboxamide] | 60 to 79% | 1 to 9.9 nM | > 1000 nM | < 20%
Cc1cc2c(-c3cccc4cc(-c5ccc(C(=O)NCC#Cc6ccc7occ(C8CCC(=O)NC8=O)c7c6)nc5)ncc34)nc(OC(C)C)cc2n(C)c1=O (centres unmarked) [Example B88, N-(3-(3-(2,6-dioxopiperidin-3-yl)benzofuran-5-yl)prop-2-yn-1-yl)-5-(8-(7-isopropoxy-1,3-dimethyl-2-oxo-1,2-dihydro-1,6-naphthyridin-5-yl)isoquinolin-3-yl)picolinamide] | > 80% | 1 to 9.9 nM | > 1000 nM | < 20%
Cc1cc2c(-c3cccc4cc(-c5ccc(C(=O)NCC#Cc6ccc7occ(C8CCC(=O)NC8=O)c7c6)nc5)ncc34)nc(N3CCOCC3)cc2n(C)c1=O (centres unmarked) [Example B92, 5-(8-(1,3-dimethyl-7-morpholino-2-oxo-1,2-dihydro-1,6-naphthyridin-5-yl)isoquinolin-3-yl)-N-(3-(3-(2,6-dioxopiperidin-3-yl)benzofuran-5-yl)prop-2-yn-1-yl)picolinamide] | > 80% | 1 to 9.9 nM | 10 to 99 nM | 20 to 39%
Cc1cc2c(N3CCCc4nc(-c5ccc(C(=O)NCC#Cc6cc7c(C8CCC(=O)NC8=O)nccc7o6)nc5)ncc43)cc(C3CCOCC3)cc2n(C)c1=O (centres unmarked) [Example B94, 5-(5-(1,3-dimethyl-2-oxo-7-(tetrahydro-2H-pyran-4-yl)-1,2-dihydroquinolin-5-yl)-5,6,7,8-tetrahydropyrido[3,2-d]pyrimidin-2-yl)-N-(3-(4-(2,6-dioxopiperidin-3-yl)furo[3,2-c]pyridin-2-yl)prop-2-yn-1-yl)picolinamide] | > 80% | < 1 nM | 1 to 9.9 nM | 20 to 39%
Cc1cc2c(-c3cccc4cc(-c5ccc(C(=O)NCC#Cc6ccc7occ(C8CCC(=O)NC8=O)c7c6)nc5)ncc34)nc(C(C)C)cc2n(C)c1=O (centres unmarked) [Example B102, N-(3-(3-(2,6-dioxopiperidin-3-yl)benzofuran-5-yl)prop-2-yn-1-yl)-5-(8-(7-isopropyl-1,3-dimethyl-2-oxo-1,2-dihydro-1,6-naphthyridin-5-yl)isoquinolin-3-yl)picolinamide] | > 80% | 1 to 9.9 nM | > 1000 nM | < 20%
Cc1cc(-c2ncc3c(n2)CCCN3c2cc(C3CCOCC3)nc3c2cc(C)c(=O)n3C)cnc1C(=O)NCC#Cc1cc2c(C3CCC(=O)NC3=O)cccc2o1 (centres unmarked) [Example B103, 5-(5-(6,8-dimethyl-7-oxo-2-(tetrahydro-2H-pyran-4-yl)-7,8-dihydro-1,8-naphthyridin-4-yl)-5,6,7,8-tetrahydropyrido[3,2-d]pyrimidin-2-yl)-N-(3-(4-(2,6-dioxopiperidin-3-yl)benzofuran-2-yl)prop-2-yn-1-yl)-3-methylpicolinamide] | > 80% | 1 to 9.9 nM | 100 to 999 nM | < 20%
Cc1cc2c(N3CCCc4nc(-c5ccc(C(=O)NCC#Cc6cc7c(C8CCC(=O)NC8=O)nccc7o6)nc5)ncc43)cccc2n(C)c1=O (centres unmarked) [Example B106, 5-(5-(1,3-dimethyl-2-oxo-1,2-dihydroquinolin-5-yl)-5,6,7,8-tetrahydropyrido[3,2-d]pyrimidin-2-yl)-N-(3-(4-(2,6-dioxopiperidin-3-yl)furo [3,2-c]pyridin-2-yl)prop-2-yn-1-yl) picolinamide] | > 80% | < 1 nM | 100 to 999 nM | < 20%
Cc1cc2c(N3CCCc4nc(-c5ccc(C(=O)NCC#Cc6ccc7occ(C89CC(C8)C(=O)NC9=O)c7c6)nc5)ncc43)cc(C3CCOCC3)cc2n(C)c1=O [Example B107, 5-(5-(1,3-dimethyl-2-oxo-7-(tetrahydro-2H-pyran-4-yl)-1,2-dihydroquinolin-5-yl)-5,6,7,8-tetrahydropyrido[3,2-d]pyrimidin-2-yl)-N-(3-(3-(2,4-dioxo-3-azabicyclo[3.1.1]heptan-1-yl)benzofuran-5-yl)prop-2-yn-1-yl) picolinamide] | 60 to 79% | 1 to 9.9 nM | > 1000 nM | < 20%
